Columns and labels:
[1] = tested on: transplanted tumor of human gastric adenocarcinoma SGC7901 cells; experiment: Human gastric adenocarcinoma in nude mice model; settings: 30 mg/kg
Protocol: Then cell concentration was adjusted to 1×10^7/ml with matrigel, and then each nude mouse was inoculated subcutaneously with 0.2 ml of cells at its right armpit and recorded as the first day of inoculation. […] Each group was continuously administered intragastrically for 30 days with a dose of 20 ml/kg. The mice were sacrificed the next day after drug withdrawal and the indicators were tested. The long diameter and short diameter of the tumor, and the body weight of each mouse were recorded every 3 days from drug administration to nude mouse sacrifice.
The body weight of the nude mice and the long diameter (a) and short diameter (b) of the transplanted tumor were measured every 3 days, and the tumor volume (v), relative tumor volume (RTV) and relative tumor proliferation rate (T/C) are calculated respectively according to the following formulas, wherein V=a×b^2/2; RTV=V/V0 (V0 is the tumor volume before administration, V is the tumor volume before sacrifice), and T/C (%)=treatment group RTV/model control group RTV×100%.
Each mouse was weighed and sacrificed. After the tumor was completely stripped off from the body of the mouse, the non-tumor tissues such as blood stains and fat were removed to weigh the tumor and calculate the tumor growth inhibition rate. The average tumor weight of each group of mice is used as an indicator of efficacy. Tumor growth inhibition rate (%)=(1−the average tumor weight of the treatment group/the average tumor weight of the model group)×100%.

[2] = tested on: mouse bone marrow polychromatic erythrocytes; settings: NIH mice, cyclophosphamide 60 mg/kg positive control
Protocol: It is the object to test the mutagenic potential of drugs on mammalian somatic cells, and provide a basis for clinical drug use.
An appropriate amount of 0.5% sodium carboxymethyl cellulose solution was added to prepare a suspension, and the suspension was stored in a refrigerator at 4° C. The negative control was an equal amount of 0.5% sodium carboxymethylcellulose solution. The positive control was prepared as follows: an appropriate amount of cyclophosphamide used for injection was weighed, and was dissolved in normal saline at the time of use to prepare 60 mg/kg of solution.
6 mice per group. The doses, number of administrations, and bone marrow sampling time are selected in the pre-test.
The dose is reduced by ½ LD50 as the standard, and the number of administrations is one time. According to the pre-test results, the bone marrow sampling time is to sample 24 hours after administration.
At least three dose groups, respectively: 2,000 mg/kg, 1,000 mg/kg, 500 mg/kg
The number of administrations: one-time oral administration.
Oral (Intragastric) administration.
2.4.3 Bone marrow sampling time: 24 hours after administration.
The mice were sacrificed by cervical dislocation. Then the sternums were taken to remove the muscles thereon and the attachments were wiped with a gauze. Direct smear of bone marrow was used: the sternums were cut to expose the medullary cavity, and bone marrow was extruded and mixed well with a drop of calf serum on a slide beforehand as a push piece. After being dried, the slide was fixed in methanol for 10 minutes, and then after it was dried, it was then subjected to Giemsa staining. Each mouse was microscopically examined for about 1,000 polychromatic erythrocytes with intact contours of erythrocytes, and the frequency of occurrence of micronuclei and the ratio of polychromatic erythrocytes to erythrocytes were counted.

O=P1(N(CCCl)CCCl)NCCCO1 (stereo not shown) [Cyclophosphamide]
Relative Tumor Proliferation Rate(T/C) [1]: 48.83%
Relative Tumor Volume (RTV) [1]: 7.86 ± 3.23
Tumor Weight [1]: 0.71 ± 0.08 g
Inhibition Rate (%) ([1]; by tumor weight): 70.97%
Body Weight (g)(d1) ([1]; d1): 21.80 ± 1.96 g
Tumor Volume (mm3) (d1) ([1]; d1): 102.45 ± 9.52 mm3
Body Weight (g)(d30) ([1]; d30): 20.25 ± 1.57 g
Tumor Volume (mm3) (d30) ([1]; d30): 799.74 ± 82.25 mm3
micronucleus rate relative to the negative control group [2]: 16.85 times
micronuclei of polychromatic erythrocytes compared with the negative control group ([2]; P<0.01): very significant increase

Reference: patent US11077126B2 (priority 2017, dated 2021)
